In patent US8106031B2, “Hydrolytically-resistant boron-containing therapeutics and methods of use” (Anacor Pharmaceuticals, Inc., priority 2006, dated 2012):
Converted amounts (≈) assume the structure as drawn. Like-named read-outs stand apart in the source and are kept apart here.

Tests used:
Aspergillus fumigatus = assay: MIC against A. fumigatus (NCCLS broth dilution); type: cell-based; settings: for Minimum inhibitory concentration, A. fumigatus: Table 3, 1-hydroxy series (19); for MIC: Aspergillus fumigatus, read-out: Minimum inhibitory concentration, A. fumigatus
Excerpt: (§1) To determine the antifungal activity of these compounds we screened for their minimum inhibitory concentrations (MIC) against the major dermatophytes that cause onychomycosis, T. rubrum and T. mentagrophytes, and against the yeasts and molds C. albicans, C. neoformans and A. fumigatus to test for their broad spectrum activity. The antifungal agent ciclopirox, currently in use for the topical treatment of onychomycosis, was used as a reference.
(§2) All MIC testing against Trichophyton rubrum, Trichophyton mentagrophytes, Candida albicans, Cryptococcus neoformans and Aspergillus fumigatus were determined following the National Committee for Clinical Laboratory Standards (NCCLS) guidelines for antimicrobial testing of yeasts and filamentous fungi.^i,ii
(§3) Two-fold serial dilutions of the test compounds were prepared in 96-well plates. […] Pfaller M A, Chaturvedi V, Espinel-Ingroff A, Ghannoum M A, Gosey L L, Odds F C, Rex J H, Rinaldi M G, Sheehan D J, Walsh T J, Warnock D W. NCCLS publication M27-A2—Reference Method for Broth Dilution Antifungal Susceptibility Testing of Yeasts; Approved Standard—Second Edition. […] Pfaller M A, Chaturvedi V, Espinel-Ingroff A, Ghannoum M A, Gosey L L, Odds F C, Rex J H, Rinaldi M G, Sheehan D J, Walsh T J, Warnock D W. NCCLS publication M38-A—Reference Method for Broth Dilution Antifungal Susceptibility Testing of Filamentous Fungi; Approved Standard.

[1] = tested on: Trichophyton mentagrophytes; assay: MIC against T. mentagrophytes (NCCLS broth dilution); type: cell-based; settings: for Minimum inhibitory concentration, T. mentagrophytes: Table 3, 1-hydroxy series (19); for MIC: Trichophyton mentagrophytes, read-out: Minimum inhibitory concentration, T. mentagrophytes
Excerpt: as §1, §2, §3

Cryptococcus neoformans = assay: MIC against C. neoformans (NCCLS broth dilution); type: cell-based; settings: for Minimum inhibitory concentration, C. neoformans: Table 3, 1-hydroxy series (19); for MIC: Cryptococcus neoformans, read-out: Minimum inhibitory concentration, C. neoformans
Excerpt: as §1, §2, §3

Candida albicans = assay: MIC against C. albicans (NCCLS broth dilution); type: cell-based; settings: for Minimum inhibitory concentration, C. albicans: Table 3, 1-hydroxy series (19); for MIC: Candida albicans, read-out: Minimum inhibitory concentration, C. albicans
Excerpt: as §1, §2, §3

Trichophyton rubrum = assay: MIC against T. rubrum (NCCLS broth dilution); type: cell-based; settings: for Minimum inhibitory concentration, T. rubrum: Table 3, 1-hydroxy series (19); for MIC: Trichophyton rubrum, read-out: Minimum inhibitory concentration, T. rubrum
Excerpt: as §1, §2, §3

[2] = Table 1, over 90% reduction of growth, 24-168 h at 35° C.

Row | Compound | MIC (Aspergillus fumigatus; Table 2, 1-phenyl series (9)) | MIC ([1]; Table 2, 1-phenyl series (9)) | MIC (Cryptococcus neoformans; Table 2, 1-phenyl series (9)) | MIC (Candida albicans; Table 2, 1-phenyl series (9)) | MIC (Trichophyton rubrum; Table 2, 1-phenyl series (9)) | melting point | other results
1 | 1,3-Dihydro-1-hydroxy-2,1-naphtho[2,1-d]oxaborole [19j] | – | – | – | – | – | – | Minimum inhibitory concentration, A. fumigatus (Aspergillus fumigatus): 32 µg/mL; Minimum inhibitory concentration, T. mentagrophytes [1]: 2 µg/mL; Minimum inhibitory concentration, C. neoformans (Cryptococcus neoformans): 32 µg/mL; Minimum inhibitory concentration, C. albicans (Candida albicans): 32 µg/mL; Minimum inhibitory concentration, T. rubrum (Trichophyton rubrum): 4 µg/mL
2 | 1,3-Dihydro-1-hydroxy-5-trifluoromethoxy-benzoxaborole [19i] | – | – | – | – | – | – | Minimum inhibitory concentration, A. fumigatus (Aspergillus fumigatus): >64 µg/mL; Minimum inhibitory concentration, T. mentagrophytes [1]: 64 µg/mL; Minimum inhibitory concentration, C. neoformans (Cryptococcus neoformans): >64 µg/mL; Minimum inhibitory concentration, C. albicans (Candida albicans): >64 µg/mL; Minimum inhibitory concentration, T. rubrum (Trichophyton rubrum): 64 µg/mL
3 | Clc1cccc(B2OCc3ccccc32)c1 [9c, 1-(3-Chlorophenyl)-1,3-dihydro-2,1-benzoxaborole] | 8 µg/mL (≈ 35 µM) | 8 µg/mL (≈ 35 µM) | 4 µg/mL (≈ 17.5 µM) | 8 µg/mL (≈ 35 µM) | 16 µg/mL (≈ 70 µM) | – | –
4 | Fc1cccc(B2OCc3ccccc32)c1 [9d, 1,3-Dihydro-1-(3-fluorophenyl)-2,1-benzoxaborole] | 8 µg/mL (≈ 37.7 µM) | 16 µg/mL (≈ 75.5 µM) | 4 µg/mL (≈ 18.9 µM) | 4 µg/mL (≈ 18.9 µM) | 8 µg/mL (≈ 37.7 µM) | – | –
5 | Fc1ccc(B2OCc3ccccc32)cc1 [9e, 1,3-Dihydro-1-(4-fluorophenyl)-2,1-benzoxaborole] | 2 µg/mL (≈ 9.43 µM) | 4 µg/mL (≈ 18.9 µM) | 2 µg/mL (≈ 9.43 µM) | 4 µg/mL (≈ 18.9 µM) | 8 µg/mL (≈ 37.7 µM) | 53 to 55 °C | –
6 | Fc1ccc2c(c1)COB2c1cccc(Cl)c1 [9f, 1-(3-Chlorophenyl)-1,3-dihydro-5-fluoro-2,1-benzoxaborole] | 2 µg/mL (≈ 8.11 µM) | 8 µg/mL (≈ 32.5 µM) | 0.5 µg/mL (≈ 2.03 µM) | 0.25 µg/mL (≈ 1.01 µM) | 4 µg/mL (≈ 16.2 µM) | 112 to 114 °C | –
7 | Fc1cccc(B2OCc3cc(F)ccc32)c1 [9g, 1,3-Dihydro-5-fluoro-1-(3-fluorophenyl)-2,1-benzoxaborole] | 1 µg/mL (≈ 4.35 µM) | 2 µg/mL (≈ 8.69 µM) | 1 µg/mL (≈ 4.35 µM) | 0.5 µg/mL (≈ 2.17 µM) | 1 µg/mL (≈ 4.35 µM) | 80 to 82 °C | –
8 | Fc1ccc(B2OCc3cc(F)ccc32)cc1 [9h, 1,3-Dihydro-5-fluoro-1-(4-fluorophenyl)-2,1-benzoxaborole] | 2 µg/mL (≈ 8.69 µM) | 4 µg/mL (≈ 17.4 µM) | 1 µg/mL (≈ 4.35 µM) | 1 µg/mL (≈ 4.35 µM) | 4 µg/mL (≈ 17.4 µM) | 75 to 77 °C | –
9 | Cc1cccc(B2OCc3cc(F)ccc32)c1 [9i, 1,3-Dihydro-5-fluoro-1-(3-methylphenyl)-2,1-benzoxaborole] | 0.5 µg/mL (≈ 2.21 µM) | 4 µg/mL (≈ 17.7 µM) | 0.5 µg/mL (≈ 2.21 µM) | 1 µg/mL (≈ 4.42 µM) | 2 µg/mL (≈ 8.85 µM) | 48 to 49 °C | –
10 | Cc1ccc(B2OCc3cc(F)ccc32)cc1 [9j, 1,3-Dihydro-5-fluoro-1-(4-methylphenyl)-2,1-benzoxaborole] | 0.5 µg/mL (≈ 2.21 µM) | 2 µg/mL (≈ 8.85 µM) | 0.5 µg/mL (≈ 2.21 µM) | 0.5 µg/mL (≈ 2.21 µM) | 2 µg/mL (≈ 8.85 µM) | 48 to 49 °C | –
11 | C(=Cc1ccccc1)B1OCc2ccccc21 [10a, 1,3-Dihydro-1-styryl-2,1-benzoxaborole] | – | – | – | – | – | 57 to 59 °C | MIC (Aspergillus fumigatus; [2]): 4 µg/mL (≈ 18.2 µM); MIC [1, 2]: 8 µg/mL (≈ 36.4 µM); MIC (Cryptococcus neoformans; [2]): 4 µg/mL (≈ 18.2 µM); MIC (Candida albicans; [2]): 2 µg/mL (≈ 9.09 µM); MIC (Trichophyton rubrum; [2]): 8 µg/mL (≈ 36.4 µM)
12 | OB1OCc2ccccc21 [19a, 1,3-Dihydro-1-hydroxy-2,1-benzoxaborole] | – | – | – | – | – | – | MIC (Aspergillus fumigatus): 2 µg/mL (≈ 14.9 µM); MIC [1]: 4 µg/mL (≈ 29.9 µM); MIC (Cryptococcus neoformans): 1 µg/mL (≈ 7.47 µM); MIC (Candida albicans): 2 µg/mL (≈ 14.9 µM); MIC (Trichophyton rubrum): 8 µg/mL (≈ 59.7 µM)
